# Data published in article PMC7758046, “Novel piperazine–chalcone hybrids and related pyrazoline analogues targeting VEGFR-2 kinase; design, synthesis, molecular docking studies, and anticancer evaluation” (Journal of Enzyme Inhibition and Medicinal Chemistry, 2020).
# How the values were obtained:
# SF-268 (CNS cancer) = assay: NCI-60 single-dose anticancer screen; type: cell-based, human; details: 10 µM single dose
# Protocol: (§1) Six compounds were selected by the NCI, according to NCI’s DTP selection guidelines, for evaluation of their anticancer activity at a single-dose of 10 µM against 60 human tumours cell lines.
# (§2) In vitro cytotoxicity was performed in NCI according to reported method.
# CCRF-CEM (Leukaemia) = assay: NCI-60 single-dose anticancer screen; type: cell-based, human; details: 10 µM single dose
# Protocol: as §1, §2
# U251 (CNS cancer) = assay: NCI-60 single-dose anticancer screen; type: cell-based, human; details: 10 µM single dose
# Protocol: as §1, §2
# SK-OV-3 (Ovarian cancer) = assay: NCI-60 single-dose anticancer screen; type: cell-based, human; details: 10 µM single dose
# Protocol: as §1, §2
# T-47D (Breast cancer) = assay: NCI-60 single-dose anticancer screen; type: cell-based, human; details: 10 µM single dose
# Protocol: as §1, §2
# SNB-19 (CNS cancer) = assay: NCI-60 single-dose anticancer screen; type: cell-based, human; details: 10 µM single dose
# Protocol: as §1, §2
# [1] = tested on: NCI-H226 (Non-small cell lung cancer); assay: NCI-60 single-dose anticancer screen; type: cell-based, human; details: 10 µM single dose
# Protocol: as §1, §2
# ACHN (Renal cancer) = assay: NCI-60 single-dose anticancer screen; type: cell-based, human; details: 10 µM single dose
# Protocol: as §1, §2
# UACC-62 (Melanoma) = assay: NCI-60 single-dose anticancer screen; type: cell-based, human; details: 10 µM single dose
# Protocol: as §1, §2
# M14 (Melanoma) = assay: NCI-60 single-dose anticancer screen; type: cell-based, human; details: 10 µM single dose
# Protocol: as §1, §2
# [2] = tested on: HOP-92 (Non-small cell lung cancer); assay: NCI-60 single-dose anticancer screen; type: cell-based, human; details: 10 µM single dose
# Protocol: as §1, §2
# HS 578T (Breast cancer) = assay: NCI-60 single-dose anticancer screen; type: cell-based, human; details: 10 µM single dose
# Protocol: as §1, §2
# SNB-75 (CNS cancer) = assay: NCI-60 single-dose anticancer screen; type: cell-based, human; details: 10 µM single dose
# Protocol: as §1, §2
# [3] = tested on: EKVX (Non-small cell lung cancer); assay: NCI-60 single-dose anticancer screen; type: cell-based, human; details: 10 µM single dose
# Protocol: as §1, §2
# IGROV1 (Ovarian cancer) = assay: NCI-60 single-dose anticancer screen; type: cell-based, human; details: 10 µM single dose
# Protocol: as §1, §2
# SN12C (Renal cancer) = assay: NCI-60 single-dose anticancer screen; type: cell-based, human; details: 10 µM single dose
# Protocol: as §1, §2
# COLO 205 (Colon cancer) = assay: NCI-60 single-dose anticancer screen; type: cell-based, human; details: 10 µM single dose
# Protocol: as §1, §2
# OVCAR-8 (Ovarian cancer) = assay: NCI-60 single-dose anticancer screen; type: cell-based, human; details: 10 µM single dose
# Protocol: as §1, §2
# OVCAR-3 (Ovarian cancer) = assay: NCI-60 single-dose anticancer screen; type: cell-based, human; details: 10 µM single dose
# Protocol: as §1, §2
# HL-60(TB) (Leukaemia) = assay: NCI-60 single-dose anticancer screen; type: cell-based, human; details: 10 µM single dose
# Protocol: as §1, §2
# OVCAR-4 (Ovarian cancer) = assay: NCI-60 single-dose anticancer screen; type: cell-based, human; details: 10 µM single dose
# Protocol: as §1, §2
# HCC-2998 (Colon cancer) = assay: NCI-60 single-dose anticancer screen; type: cell-based, human; details: 10 µM single dose
# Protocol: as §1, §2
# [4] = tested on: MDA-MB-231/ATCC (Breast cancer); assay: NCI-60 single-dose anticancer screen; type: cell-based, human; details: 10 µM single dose
# Protocol: as §1, §2
# [5] = tested on: NCI-H460 (Non-small cell lung cancer); assay: NCI-60 single-dose anticancer screen; type: cell-based, human; details: 10 µM single dose
# Protocol: as §1, §2
# HCT-116 (Colon cancer) = assay: NCI-60 single-dose anticancer screen; type: cell-based, human
# Protocol: as §1, §2
# RPMI-8226 (Leukaemia) = assay: NCI-60 single-dose anticancer screen; type: cell-based, human; details: 10 µM single dose
# Protocol: as §1, §2
# CAKI-1 (Renal cancer) = assay: NCI-60 single-dose anticancer screen; type: cell-based, human; details: 10 µM single dose
# Protocol: as §1, §2
# UACC-257 (Melanoma) = assay: NCI-60 single-dose anticancer screen; type: cell-based, human; details: 10 µM single dose
# Protocol: as §1, §2
# HT29 (Colon cancer) = assay: NCI-60 single-dose anticancer screen; type: cell-based, human
# Protocol: as §1, §2
# HCT-15 (Colon cancer) = assay: NCI-60 single-dose anticancer screen; type: cell-based, human; details: 10 µM single dose
# Protocol: as §1, §2
# MALME-3M (Melanoma) = assay: NCI-60 single-dose anticancer screen; type: cell-based, human; details: 10 µM single dose
# Protocol: as §1, §2
# OVCAR-5 (Ovarian cancer) = assay: NCI-60 single-dose anticancer screen; type: cell-based, human; details: 10 µM single dose
# Protocol: as §1, §2
# MOLT-4 (Leukaemia) = assay: NCI-60 single-dose anticancer screen; type: cell-based, human; details: 10 µM single dose
# Protocol: as §1, §2
# [6] = tested on: NCI-H322M (Non-small cell lung cancer); assay: NCI-60 single-dose anticancer screen; type: cell-based, human; details: 10 µM single dose
# Protocol: as §1, §2
# PC-3 (Prostate cancer) = assay: NCI-60 single-dose anticancer screen; type: cell-based, human; details: 10 µM single dose
# Protocol: as §1, §2
# SK-MEL-28 (Melanoma) = assay: NCI-60 single-dose anticancer screen; type: cell-based, human; details: 10 µM single dose
# Protocol: as §1, §2
# UO-31 (Renal cancer) = assay: NCI-60 single-dose anticancer screen; type: cell-based, human; details: 10 µM single dose
# Protocol: as §1, §2
# MCF7 (Breast cancer) = assay: NCI-60 single-dose anticancer screen; type: cell-based, human; details: 10 µM single dose
# Protocol: as §1, §2
# DU-145 (Prostate cancer) = assay: NCI-60 single-dose anticancer screen; type: cell-based, human; details: 10 µM single dose
# Protocol: as §1, §2
# RXF 393 (Renal cancer) = assay: NCI-60 single-dose anticancer screen; type: cell-based, human; details: 10 µM single dose
# Protocol: as §1, §2
# human VEGFR-2 = target: T1, human VEGFR-2 (Homo sapiens, UniProt P35968); assay: In vitro VEGFR-2 inhibitory assay (colorimetric human VEGFR-2 ELISA, HTScan VEGF Receptor 2 Kinase Assay Kit); type: biochemical; details: VEGFR-2 inhibition
# T1 construct: It includes active VEGFR-2 kinase; purchased HTScan VEGF Receptor 2 Kinase Assay Kit
# Protocol: VEGFR is considered as an important target for the development of potential anti-cancer candidates.
# On a 96-well plate, a particular VEGFR-2 antibody was seeded and 100 µL of the normal solution or compound tested was applied, incubated at room temperature for 2.5 h and washed.
# Then, 100 µL of the prepared biotin antibody was added, incubated for an additional 1 h at room temperature and washed. Following, 100 µL of streptavidin solution was added at room temperature, incubated for 45 min and then, 100 µL of TMB substrate solution was applied and incubated at room temperature for 30 min. Finally, 50 µL stop solution was added and the absorption was measured at 450 nm instantly. The standard curve, the X-axis concentrations, and the Y-axis absorbance were drawn.
# [7] = Homo sapiens, read-out: cell growth inhibition
# T1 sequence (P35968 20-1356): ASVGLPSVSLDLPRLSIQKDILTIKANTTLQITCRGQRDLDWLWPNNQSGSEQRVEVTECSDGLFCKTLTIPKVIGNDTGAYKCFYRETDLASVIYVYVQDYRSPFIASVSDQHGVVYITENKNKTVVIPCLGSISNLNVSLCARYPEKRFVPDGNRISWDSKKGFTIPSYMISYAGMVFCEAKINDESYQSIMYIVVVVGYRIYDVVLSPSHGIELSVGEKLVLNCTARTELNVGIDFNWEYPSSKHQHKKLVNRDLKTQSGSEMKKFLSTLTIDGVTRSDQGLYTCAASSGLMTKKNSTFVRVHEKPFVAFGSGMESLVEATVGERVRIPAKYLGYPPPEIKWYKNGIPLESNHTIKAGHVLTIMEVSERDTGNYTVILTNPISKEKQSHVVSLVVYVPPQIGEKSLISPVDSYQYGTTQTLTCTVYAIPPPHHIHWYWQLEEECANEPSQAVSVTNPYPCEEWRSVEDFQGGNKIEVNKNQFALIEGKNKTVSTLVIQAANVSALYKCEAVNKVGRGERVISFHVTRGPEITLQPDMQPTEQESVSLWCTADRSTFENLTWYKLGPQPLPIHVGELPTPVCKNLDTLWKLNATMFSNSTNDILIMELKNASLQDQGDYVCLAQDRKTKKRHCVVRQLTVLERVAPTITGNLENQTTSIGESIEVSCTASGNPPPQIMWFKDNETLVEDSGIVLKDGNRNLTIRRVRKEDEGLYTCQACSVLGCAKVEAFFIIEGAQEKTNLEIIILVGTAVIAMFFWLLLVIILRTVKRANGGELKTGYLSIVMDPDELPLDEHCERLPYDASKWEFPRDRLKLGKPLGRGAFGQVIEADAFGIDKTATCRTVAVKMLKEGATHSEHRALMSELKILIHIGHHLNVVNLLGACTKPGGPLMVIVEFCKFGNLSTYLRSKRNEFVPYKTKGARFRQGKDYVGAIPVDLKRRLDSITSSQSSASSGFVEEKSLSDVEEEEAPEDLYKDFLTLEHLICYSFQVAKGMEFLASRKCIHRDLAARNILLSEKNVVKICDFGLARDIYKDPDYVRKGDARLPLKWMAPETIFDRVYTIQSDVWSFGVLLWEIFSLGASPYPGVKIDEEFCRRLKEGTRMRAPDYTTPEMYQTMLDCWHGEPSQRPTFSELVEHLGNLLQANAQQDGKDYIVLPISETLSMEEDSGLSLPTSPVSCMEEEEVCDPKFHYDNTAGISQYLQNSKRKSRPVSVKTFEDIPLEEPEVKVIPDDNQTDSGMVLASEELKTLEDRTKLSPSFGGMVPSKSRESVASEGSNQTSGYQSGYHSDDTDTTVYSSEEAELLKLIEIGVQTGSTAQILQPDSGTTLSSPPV
compound,measurement,setting,value
"COc1cc(C2CC(c3ccc(N4CCNCC4)cc3)=NN2)ccc1F (centres unmarked) [VIb, 1-(4-(5-(4-Fluoro-3-methoxyphenyl)-4,5-dihydro-1H-pyrazol-3-yl)phenyl) piperazine]",cell growth promotion,SF-268 (CNS cancer),93.72%
same,cell growth promotion,CCRF-CEM (Leukaemia),69.44%
same,cell growth promotion,U251 (CNS cancer),78.59%
same,cell growth promotion,SK-OV-3 (Ovarian cancer),83.58%
same,cell growth promotion,T-47D (Breast cancer),73.62%
same,cell growth promotion,SNB-19 (CNS cancer),95.65%
same,cell growth promotion,[1],89.08%
same,cell growth promotion,ACHN (Renal cancer),101.47%
same,cell growth promotion,UACC-62 (Melanoma),86.00%
same,cell growth promotion,M14 (Melanoma),84.68%
same,cell growth promotion,[2],57.13%
same,inhibition at 10 µM,[2]; [7],42.9%
same,cell growth promotion,HS 578T (Breast cancer),84.17%
same,cell growth promotion,SNB-75 (CNS cancer),88.85%
same,cell growth promotion,[3],95.41%
same,cell growth promotion,IGROV1 (Ovarian cancer),82.04%
same,cell growth promotion,SN12C (Renal cancer),83.08%
same,cell growth promotion,COLO 205 (Colon cancer),93.87%
same,cell growth promotion,OVCAR-8 (Ovarian cancer),84.09%
same,cell growth promotion,OVCAR-3 (Ovarian cancer),91.15%
same,cell growth promotion,HL-60(TB) (Leukaemia),76.95%
same,cell growth promotion,OVCAR-4 (Ovarian cancer),91.49%
same,cell growth promotion,HCC-2998 (Colon cancer),104.57%
same,cell growth promotion,[4],81.98%
same,cell growth promotion,[5],95.16%
same,cell growth promotion,HCT-116 (Colon cancer); 10 µM single dose,61.10%
same,inhibition at 10 µM,HCT-116 (Colon cancer); [7],38.9%
same,cell growth promotion,RPMI-8226 (Leukaemia),72.01%
same,cell growth promotion,CAKI-1 (Renal cancer),86.62%
same,cell growth promotion,UACC-257 (Melanoma),80.93%
same,cell growth promotion,HT29 (Colon cancer); 10 µM single dose,20.27%
same,inhibition at 10 µM,"HT29 (Colon cancer); Homo sapiens, HT-29, 10 µM single dose, read-out: cell growth inhibition",79.7%
same,cell growth promotion,HCT-15 (Colon cancer),85.57%
same,cell growth promotion,MALME-3M (Melanoma),102.13%
same,cell growth promotion,OVCAR-5 (Ovarian cancer),101.51%
same,cell growth promotion,MOLT-4 (Leukaemia),72.10%
same,cell growth promotion,[6],89.15%
same,cell growth promotion,PC-3 (Prostate cancer),64.23%
same,cell growth promotion,SK-MEL-28 (Melanoma),109.51%
same,cell growth promotion,UO-31 (Renal cancer),76.56%
same,cell growth promotion,MCF7 (Breast cancer),68.65%
same,cell growth promotion,DU-145 (Prostate cancer),103.62%
same,cell growth promotion,RXF 393 (Renal cancer),95.32%
same,IC50,human VEGFR-2,1060 nM
